According to a melting point compilation (Tetko et al.):

Row | SMILES | melting point [°C]
1 | OCc1ccccc1CN1CCOCC1 | 59
2 | BrCc1ccc(-c2ccccc2)cc1 | 86 to 87
3 | NC(=S)c1ncc(C(F)(F)F)cc1Cl | 135 to 136
4 | Cc1ccc(-c2cnco2)cc1 | 78
5 | O=S(=O)(Cl)c1ccc(CBr)cc1 | 74
6 | CC(C=CC=C(C)C=CC1=C(C)CC(O)CC1(C)C)=CC=CC=C(C)C=CC=C(C)C1C=C2C(C)(C)CC(O)CC2(C)O1 (stereo not given) | 184
7 | O=C(Nc1nccs1)C(C(F)(F)F)C(F)(F)F | 148
8 | CCC1(c2ccccc2)NC(=O)N(C)C1=O (stereo not given) | 136
9 | O=C(NC(Cc1ccc2ccccc2c1)C(=O)O)OCC1c2ccccc2-c2ccccc21 (stereo not given) | 191
10 | CCCCC(c1ccccc1)c1ccccc1 | -12
11 | CC(=O)OC1CC2(O)C(CCC3(C)C(c4ccc(=O)oc4)CCC32O)C2(C)CCC(OC3OC(CO)C(O)C(O)C3O)C=C12 (stereo not given) | 169
12 | C=C(C)C=O | -81
13 | COc1ccc(C(=O)N(NC(=O)c2ccccc2)C(C)(C)C)cc1OC | 206
14 | CSC(=Nc1nnc(-c2ccccc2)s1)SC | 111 to 113
15 | CCOC(=O)c1c[nH]c2c(c1=O)CNN2C | 138 to 140
16 | C=Cc1ccc(Cl)cc1 | 15.9
17 | c1cncc(-c2cccnc2)c1 | 68
18 | O=[N+]([O-])c1ccccc1/C=C/c1nc2ccccc2s1 | 131
19 | O=[N+]([O-])c1ccc(-c2ccccc2)cc1 | 114
20 | NC(=O)N(CCO)N=Cc1ccc([N+](=O)[O-])o1 | 214
21 | COc1ccccc1C=CC(=O)c1ccc(O)cc1O | 177
22 | CNCc1csc(C2CCN(C(=O)OC(C)(C)C)CC2)n1 | 43 to 47
23 | CCC(N)C(O)c1ccccc1 (stereo not given) | 79.5
24 | CC(=O)Nc1ccc(C=Cc2nc3cc([N+](=O)[O-])ccc3n2-c2ccc(C)cc2)cc1 | 249 to 250
25 | CC(=O)c1ccc(N2CCNCC2)cc1 | 107 to 110
26 | O=S(=O)(Cl)c1ccc(-c2ccc(Cl)c(Cl)c2)cc1 | 105 to 106
27 | C=C(C)CCCCCCCC | -51

Row | SMILES | melting point [°C]
28 | Cc1cc(C)c2c(c1)CC1CCCCN1C2=O (stereo not given) | 102
29 | O=C1NC(=O)C(=NNc2ccc(Cl)cc2)C(=O)N1 | 353
30 | CC(=O)ON(/C=C1\C(=O)C2(C)CCC1C2(C)C)c1ccccc1 (stereo not given) | 162 to 164
31 | O=C(O)c1ccno1 | 143
32 | CCCCCCCCOc1ccc(NC(=O)c2ccc(CC)cc2)cc1 | 143
33 | C=CCO | -129
34 | Cc1csc(C(N)=O)c1 | 115 to 117
35 | CN1C(=O)Cc2cc(Br)ccc21 | 132 to 133
36 | COC(=O)c1ccc2c(I)c[nH]c2c1 | 150
37 | N[C@H](CO)[C@H](O)c1ccc([N+](=O)[O-])cc1 | 160 to 166
38 | Cc1ccccc1NC(N)=S | 162
39 | Nc1ccccc1C(=O)Nc1ccccc1 | 132
40 | N#Cc1cc2ccccc2c2ccccc12 | 111
41 | O=S(=O)(Cl)c1cccc2nsnc12 | 148 to 150
42 | COC(=O)c1ccc(CN2CCN(C(=O)OC(C)(C)C)CC2)cc1 | 78 to 80
43 | COC(=O)c1ccc(CBr)cc1 | 56
44 | Cc1cccc(C(=O)N(NC(=O)c2ccccc2)C(C)(C)C)c1 | 211
45 | C1=CC=CC=CC=C1 | -4.7
46 | Ic1ccccc1Cn1cncn1 | 67 to 69
47 | C/C(=N\CCO)c1c(O)c2ccccc2n(-c2ccccc2)c1=O | 201 to 202
48 | OCCN1CCN(CCCN2c3ccccc3Sc3ccc(Cl)cc32)CC1 | 94
49 | CNc1ccccc1 | -57
50 | COc1ccc2c(CCN)c[nH]c2c1 | 143 to 146
51 | CC(=O)Nc1ccc(Br)cc1OC(F)(F)F | 136
52 | O=C(O)C1CCC1 | -2
53 | COc1ccc(C(=CCC(=O)O)C(C)(C)C(=O)O)cc1 | 137
54 | Cc1nn(C)c(Cl)c1[N+](=O)[O-] | 75 to 77

Row | SMILES | melting point [°C]
55 | Cc1cc(O)c(C2CC3CCC2(C)C3(C)C)cc1C (stereo not given) | 95
56 | CC(=O)OCC1OC(OC2(COC(C)=O)OC(COC(C)=O)C(OC(C)=O)C2OC(C)=O)C(OC(C)=O)C(OC(C)=O)C1OC(C)=O (stereo not given) | 86.5
57 | O=C1NC(=O)C(=Cc2ccc(-c3cccc([N+](=O)[O-])c3)o2)C(=O)N1 | 280
58 | O=Nc1ccc(O)c2ncccc12 | 245
59 | Cc1ccc(S(=O)(=O)N[C@@H](c2ccccc2)[C@@H](N)c2ccccc2)cc1 | 127 to 130
60 | Clc1cccc(O[Si]23OCCN(CCO2)CCO3)c1 | 245
61 | CC(=O)C1(O)CCC2(C)C(CCC3C2CCC2(C)C3CCC23OCCO3)C1 (stereo not given) | 182 to 190
62 | O=C(NC1(Cc2ccccc2)COCOC1=O)c1ccccc1 (racemic) | 176 to 178
63 | O=C(CCCCl)c1ccc(O)cc1 | 113
64 | COc1ccc(OC)c(S(=O)(=O)Cl)c1 | 115 to 116
65 | Cc1c(N)cc([N+](=O)[O-])cc1C(N)=O | 199
66 | Nc1cc(Cl)c([N+](=O)[O-])cc1N | 189 to 193
67 | FC(F)(F)c1ccc(-n2ccnc2)cc1 | 71 to 73
68 | O=C(Oc1ccccc1)c1cccc(C(=O)Oc2ccccc2)c1 | 136 to 139
69 | C=CC(CO)N1C(=O)c2ccccc2C1=O (stereo not given) | 62.2
70 | COc1cc(OC)cc(C(C)=O)c1 | 40
71 | CC(=O)Nc1ccc(F)cc1[N+](=O)[O-] | 70 to 73
72 | CCOC(=O)C1CN(Cc2ccco2)C(=O)C1=O (stereo not given) | 127 to 129
73 | CCCCCCC(=O)CC | -8
74 | Cc1ccc(C#N)cc1C | 67 to 69
75 | CC12CCC(C(Br)(CBr)C1=O)C2(C)C (stereo not given) | 109
76 | Clc1cc(Cl)nc(-c2ccccc2)n1 | 96.9
77 | N#Cc1ccc(F)cc1[N+](=O)[O-] | 71 to 73
78 | Cn1ccc(-c2cccc(C(=O)Oc3c(F)c(F)c(F)c(F)c3F)c2)n1 | 126 to 127
79 | CN(CCCC(=O)c1cccnc1)N=O | 67.5
80 | CC(C)Cc1ccc(C(C)C(=O)NN)cc1 (stereo not given) | 76 to 78

Continued, values first:

Row | melting point [°C] | SMILES
81 | 112 to 116 | CC1=NC2(CCCCC2)[N+]([O-])=C1
82 | 99 | O=C(C1=NOC2C(=O)N(c3ccc(O)cc3)C(=O)C12)c1ccccc1 (stereo not given)
83 | 169 to 171 | CC(=O)Nc1ccc(C#N)cc1C(F)(F)F
84 | 201 | CCOC(=O)C1=NN(c2ccccc2)C(=O)C1C(Br)C1(Br)C(=O)N(c2ccccc2)N=C1C(=O)OCC (stereo not given)
85 | 35 to 39 | O=C=Nc1ccc2c(c1)OCCOCCOCCOCCO2
86 | 53 to 59 | COC(=O)c1ccc(C(=O)Cl)cc1
87 | 122 | FC(F)(F)c1nn(CN2CCCCC2)c(=S)n1N=Cc1ccc2c(c1)OCO2
88 | 90 | O=NN(CCCl)C(=O)NC1CCCCC1
89 | 264 to 266 | Cn1c(=O)cc(O)c2ccccc21
90 | 51 to 53 | N#Cc1ccc(N2CCCCC2)cc1
91 | 268 to 275 | O=C1Nc2c(C(=O)O)cccc2C1=O
92 | 200 | O=C(O)c1cc2cc([N+](=O)[O-])ccc2oc1=O
93 | 112 | CCOc1cc(C(=O)O)cc(OCC)c1OCC
94 | 251 to 255 | O=C(O)CSc1ccncc1
95 | 231 | N#CC1=C(N)OC2(C(=O)Nc3ccccc32)C2=C1CCCC2 (stereo not given)
96 | 34 to 36 | O=S(=O)(Cl)c1sc(Cl)cc1Br
97 | 170 | Nc1nc(-c2ccc(Br)s2)cs1
98 | 156 | CC12CCC(C(C(O)c3ccccc3)OC1=O)C2(C)C (stereo not given)
99 | 90 | CC(=O)Oc1ccccc1C(C)=O
100 | 155 | COc1cccc(OC)c1P(c1c(OC)cccc1OC)c1c(OC)cccc1OC
101 | 58 | c1ccc(Cc2ccc3ccccc3c2)cc1
102 | 301 | O=C(O)/C=C/C=C/C(=O)O
103 | 152 | Cn1c(=O)c2c(ncn2CCOC(=O)c2cccnc2)n(C)c1=O

Row | melting point [°C] | SMILES
104 | 30 | O=S(=O)(Cl)c1ccc(F)cc1Cl
105 | 72 | Cc1c(C)c(C)c(Br)c(Br)c1C
106 | 158 to 160 | Clc1ccc(-c2cn3c(n2)sc2ccccc23)cc1
107 | 92 | CC1CCC(C)(C(=O)NNc2ccccc2)C1(C)C (stereo not given)
108 | 109 | CC(=O)OC[C@@H](OC(C)=O)[C@H](OC(C)=O)[C@H](OC(C)=O)[C@@H](OC(C)=O)c1nnn[nH]1
109 | 136 | CC(C)=CCC/C(C)=N/NC(N)=O
110 | 148 to 149 | Nc1n[nH]c(N)c1Cc1ccccc1
111 | 124 | Cc1ccccc1NC(=S)C(=O)c1ccccc1
112 | 137 | COCCNc1c(C=O)c(=O)n(C)c(=O)n1C
113 | 35.5 | CCCCOC(=O)c1ccc([N+](=O)[O-])cc1
114 | 20 | Oc1ccc(Cl)cc1F
115 | 234 | O=C(O)/C=C/c1cc2c(cc1CC(=O)O)NC(=O)CC2
116 | 305 to 308 | O=c1[nH]c2scc(-c3ccccc3)c2c(=O)n1-c1ccccc1
117 | 151 | CCOC(=O)c1nn(-c2ccc(F)cc2)c(-c2cccs2)c1S(=O)(=O)c1ccccc1
118 | 165 | CC1=C(C(=O)O)C(c2ccccc2)N(C)C(=O)N1C (stereo not given)
119 | 235 | C=C1C(=O)C23C(OC(C)=O)CC4C5(C)CCCC4(C(=O)OC5)C2C(OC(C)=O)CC1C3OC(C)=O (stereo not given)
120 | 164 | Cc1c(C)c([N+](=O)[O-])c(C)c2c1C(=O)C2
121 | 164 | CC(C)C1=CC2=C(CC1)C1(C)CCCC(C)(C(=O)O)C1CC2 (stereo not given)
122 | 114 | Clc1cc(Cl)c(OCC#CI)cc1Cl
123 | 191 | COc1ccc(OC)c2c(=O)c(=O)c12
124 | 201 to 205 | N#Cc1ccc2c(c1)COC2=O
125 | -82 | COC(CC(C)=O)OC
